Results taken from BindingDB's records for doi:10.1021/jm9707028 (Boehringer Ingelheim Pharmaceuticals, 1998).

Tests used:
Experiment in all cases: HIV-1 RT Assay
[1] = biological target: T1, Gag-Pol polyprotein [600-1027,Y787L]/[600-1155,Y787L] (Human immunodeficiency virus 1, UniProt P03366, Y787L)
T1 construct: 600-1027; 600-1155

[2] = biological target: T2, Gag-Pol polyprotein [600-1027,R876K]/[600-1155] (Human immunodeficiency virus 1, UniProt P03366, R876K)
T2 construct: 600-1027; 600-1155

[3] = biological target: T3, Gag-Pol polyprotein [600-1027,Y780C]/[600-1155,Y780C] (Human immunodeficiency virus 1, UniProt P03366, Y780C)
T3 construct: 600-1027; 600-1155

SMILES | IC50 [1] [µM] | further results
CCN1c2ncc(CCc3ccc4ccccc4c3)cc2C(=O)N(C)c2ccc(Cl)nc21 [5-chloro-2-ethyl-9-methyl-13-[2-(naphthalen-2-yl)ethyl]-2,4,9,15-tetraazatricyclo[9.4.0.0^{3,8}]pentadeca-1(15),3(8),4,6,11,13-hexaen-10-one] | > 1 | –
CCN1c2ncc(CCc3ccc(C)cc3)cc2C(=O)N(C)c2cccnc21 [2-ethyl-9-methyl-13-[2-(4-methylphenyl)ethyl]-2,4,9,15-tetraazatricyclo[9.4.0.0^{3,8}]pentadeca-1(11),3,5,7,12,14-hexaen-10-one] | > 1 | IC50 [2]: 0.1 µM
CCN1c2ncc(CCc3cccc(C)c3)cc2C(=O)N(C)c2ccc(Cl)nc21 [5-chloro-2-ethyl-9-methyl-13-[2-(3-methylphenyl)ethyl]-2,4,9,15-tetraazatricyclo[9.4.0.0^{3,8}]pentadeca-1(15),3(8),4,6,11,13-hexaen-10-one] | > 1 | –
CCN1c2ncc(CCc3ccccc3)cc2C(=O)N(C)c2ccc(-c3ccc[nH]3)nc21 [2-ethyl-9-methyl-13-(2-phenylethyl)-5-(1H-pyrrol-2-yl)-2,4,9,15-tetraazatricyclo[9.4.0.0^{3,8}]pentadeca-1(15),3(8),4,6,11,13-hexaen-10-one] | 1.28 | IC50 [3]: 0.52 µM; IC50 [2]: 0.59 µM
CCN1c2ncc(CCc3cccc(N=[N+]=[N-])c3)cc2C(=O)N(C)c2ccc(Cl)nc21 [13-[2-(3-azidophenyl)ethyl]-5-chloro-2-ethyl-9-methyl-2,4,9,15-tetraazatricyclo[9.4.0.0^{3,8}]pentadeca-1(15),3(8),4,6,11,13-hexaen-10-one] | > 1 | –
CCN1c2ncc(CCc3ccc(NS(C)(=O)=O)cc3)cc2C(=O)N(C)c2ccc(Cl)nc21 [N-[4-(2-{5-chloro-2-ethyl-9-methyl-10-oxo-2,4,9,15-tetraazatricyclo[9.4.0.0^{3,8}]pentadeca-1(15),3(8),4,6,11,13-hexaen-13-yl}ethyl)phenyl]methanesulfonamide] | > 1 | –
CCN1c2ncc(CCc3ccccn3)cc2C(=O)N(C)c2cccnc21 [2-ethyl-9-methyl-13-[2-(pyridin-2-yl)ethyl]-2,4,9,15-tetraazatricyclo[9.4.0.0^{3,8}]pentadeca-1(11),3,5,7,12,14-hexaen-10-one] | > 1 | IC50 [3]: > 1 µM
CCN1c2ncc(CCc3cccc(N)c3)cc2C(=O)N(C)c2cccnc21 [13-[2-(3-aminophenyl)ethyl]-2-ethyl-9-methyl-2,4,9,15-tetraazatricyclo[9.4.0.0^{3,8}]pentadeca-1(15),3(8),4,6,11,13-hexaen-10-one] | > 1 | –
CCN1c2ncc(Cl)cc2C(=O)N(C)c2cccnc21 [13-chloro-2-ethyl-9-methyl-2,4,9,15-tetraazatricyclo[9.4.0.0^{3,8}]pentadeca-1(11),3,5,7,12,14-hexaen-10-one] | – | IC50 ([3]; pH 7.8, 22 °C): > 1 µM
CCN1c2ncc(C(=O)O)cc2C(=O)N(C)c2cccnc21 [2-ethyl-9-methyl-10-oxo-2,4,9,15-tetraazatricyclo[9.4.0.0^{3,8}]pentadeca-1(11),3,5,7,12,14-hexaene-13-carboxylic acid] | – | IC50 ([2]; pH 7.8, 22 °C): > 1 µM
CCN1c2ncc(CCc3nccs3)cc2C(=O)N(C)c2cccnc21 [2-ethyl-9-methyl-13-[2-(1,3-thiazol-2-yl)ethyl]-2,4,9,15-tetraazatricyclo[9.4.0.0^{3,8}]pentadeca-1(11),3,5,7,12,14-hexaen-10-one] | > 1 | –
CCN1c2ncc(/C=C/c3ccncc3)cc2C(=O)N(C)c2cccnc21 [5,11-Dihydro-11-ethyl-5-methyl-8-[trans-2-(4-pyridyl)ethen-1-yl]-6H-dipyrido[3,2-b:2 ,3-e][1,4]diazepin-6-one] | – | IC50 [3]: > 1 µM
CCN1c2ncc(CCc3ccccc3C)cc2C(=O)N(C)c2ccc(Cl)nc21 [5-chloro-2-ethyl-9-methyl-13-[2-(2-methylphenyl)ethyl]-2,4,9,15-tetraazatricyclo[9.4.0.0^{3,8}]pentadeca-1(15),3(8),4,6,11,13-hexaen-10-one] | > 1 | IC50 [3]: > 1 µM; IC50 [2]: > 1 µM
CCN1c2ncc(CCc3ccccc3C)cc2C(=O)N(C)c2cccnc21 [2-ethyl-9-methyl-13-[2-(2-methylphenyl)ethyl]-2,4,9,15-tetraazatricyclo[9.4.0.0^{3,8}]pentadeca-1(11),3,5,7,12,14-hexaen-10-one] | > 1 | –
CCN1c2ncc(N)cc2C(=O)N(C)c2cccnc21 [13-amino-2-ethyl-9-methyl-2,4,9,15-tetraazatricyclo[9.4.0.0^{3,8}]pentadeca-1(11),3,5,7,12,14-hexaen-10-one] | – | IC50 ([2]; pH 7.8, 22 °C): 0.1 µM
CCN1c2ncc(CCc3ccncc3)cc2C(=O)N(C)c2cccnc21 [2-ethyl-9-methyl-13-[2-(pyridin-4-yl)ethyl]-2,4,9,15-tetraazatricyclo[9.4.0.0^{3,8}]pentadeca-1(11),3,5,7,12,14-hexaen-10-one] | > 1 | IC50 [3]: 0.13 µM; IC50 [2]: 0.05 µM
CCN1c2ncc(CCc3cccnc3)cc2C(=O)N(C)c2cccnc21 [2-ethyl-9-methyl-13-[2-(pyridin-3-yl)ethyl]-2,4,9,15-tetraazatricyclo[9.4.0.0^{3,8}]pentadeca-1(11),3,5,7,12,14-hexaen-10-one] | > 1 | IC50 [2]: 0.03 µM

SMILES | IC50 [1] [µM] | further results
CCN1c2ncc(C)cc2C(=O)N(C)c2cccnc21 [2-ethyl-9,13-dimethyl-2,4,9,15-tetraazatricyclo[9.4.0.0^{3,8}]pentadeca-1(11),3,5,7,12,14-hexaen-10-one] | – | IC50 ([3]; pH 7.8, 22 °C): > 1 µM
CCN1c2ncc(CCc3cccc(NS(C)(=O)=O)c3)cc2C(=O)N(C)c2ccc(Cl)nc21 [N-[3-(2-{5-chloro-2-ethyl-9-methyl-10-oxo-2,4,9,15-tetraazatricyclo[9.4.0.0^{3,8}]pentadeca-1(15),3(8),4,6,11,13-hexaen-13-yl}ethyl)phenyl]methanesulfonamide] | > 1 | –
CCN1c2ncc(CCc3ccc(C)cc3)cc2C(=O)N(C)c2ccc(Cl)nc21 [5-chloro-2-ethyl-9-methyl-13-[2-(4-methylphenyl)ethyl]-2,4,9,15-tetraazatricyclo[9.4.0.0^{3,8}]pentadeca-1(15),3(8),4,6,11,13-hexaen-10-one] | > 1 | –
CCN1c2ncc(CCc3ccc(N)cc3)cc2C(=O)N(C)c2ccc(Cl)nc21 [13-[2-(4-aminophenyl)ethyl]-5-chloro-2-ethyl-9-methyl-2,4,9,15-tetraazatricyclo[9.4.0.0^{3,8}]pentadeca-1(15),3(8),4,6,11,13-hexaen-10-one] | > 1 | –
CCN1c2ncc(CCc3cccc(C)c3)cc2C(=O)N(C)c2cccnc21 [2-ethyl-9-methyl-13-[2-(3-methylphenyl)ethyl]-2,4,9,15-tetraazatricyclo[9.4.0.0^{3,8}]pentadeca-1(11),3,5,7,12,14-hexaen-10-one] | > 1 | –
CCN1c2ncc(CCc3cncnc3)cc2C(=O)N(C)c2cccnc21 [2-ethyl-9-methyl-13-[2-(pyrimidin-5-yl)ethyl]-2,4,9,15-tetraazatricyclo[9.4.0.0^{3,8}]pentadeca-1(11),3,5,7,12,14-hexaen-10-one] | > 1 | IC50 [3]: > 1 µM
CCN1c2ncc(CCc3ccc4ccccc4c3)cc2C(=O)N(C)c2ccc(F)nc21 [2-ethyl-5-fluoro-9-methyl-13-[2-(naphthalen-2-yl)ethyl]-2,4,9,15-tetraazatricyclo[9.4.0.0^{3,8}]pentadeca-1(15),3(8),4,6,11,13-hexaen-10-one] | > 1 | –
CCN1c2ncc(CCc3ccnc(CO)c3)cc2C(=O)N(C)c2ccc(Cl)nc21 [5-chloro-2-ethyl-13-{2-[2-(hydroxymethyl)pyridin-4-yl]ethyl}-9-methyl-2,4,9,15-tetraazatricyclo[9.4.0.0^{3,8}]pentadeca-1(15),3(8),4,6,11,13-hexaen-10-one] | > 1 | –
CCN1c2ncc(CCc3ccncc3)cc2C(=O)N(C)c2ccc(C#N)nc21 [2,8-Disubstituted Dipyridodiazepinone 38] | > 1 | –
CCN1c2ncc(CCc3ccc4ccccc4c3)cc2C(=O)N(C)c2cccnc21 [2-ethyl-9-methyl-13-[2-(naphthalen-2-yl)ethyl]-2,4,9,15-tetraazatricyclo[9.4.0.0^{3,8}]pentadeca-1(15),3(8),4,6,11,13-hexaen-10-one] | > 1 | –
CCN1c2ncc(CCc3ccccc3N)cc2C(=O)N(C)c2cccnc21 [13-[2-(2-aminophenyl)ethyl]-2-ethyl-9-methyl-2,4,9,15-tetraazatricyclo[9.4.0.0^{3,8}]pentadeca-1(15),3(8),4,6,11,13-hexaen-10-one] | > 1 | –
CCN1c2ncc(-c3cccc(OC)c3)cc2C(=O)N(C)c2cccnc21 [2-ethyl-13-(3-methoxyphenyl)-9-methyl-2,4,9,15-tetraazatricyclo[9.4.0.0^{3,8}]pentadeca-1(11),3,5,7,12,14-hexaen-10-one] | – | IC50 ([3]; pH 7.8, 22 °C): > 1 µM; IC50 ([2]; pH 7.8, 22 °C): > 1 µM
CCN1c2ncc(CCc3ccnc(C(=O)O)c3)cc2C(=O)N(C)c2ccc(Cl)nc21 [2-Chloro-5,11-dihydro-11-ethyl-5-methyl-8-[2-(2-carboxypyrid-4-yl)ethyl]-6H-dipyrido[3,2-b:2 ,3-e][1,4]diazepin-6-one] | > 1 | –
CCN1c2ncc(CCc3ccnc(C)c3)cc2C(=O)N(C)c2cccnc21 [2-ethyl-9-methyl-13-[2-(2-methylpyridin-4-yl)ethyl]-2,4,9,15-tetraazatricyclo[9.4.0.0^{3,8}]pentadeca-1(15),3(8),4,6,11,13-hexaen-10-one] | > 1 | –
CCN1c2ncc(/C=C/C(=O)OC)cc2C(=O)N(C)c2cccnc21 [methyl (2E)-3-{2-ethyl-9-methyl-10-oxo-2,4,9,15-tetraazatricyclo[9.4.0.0^{3,8}]pentadeca-1(11),3,5,7,12,14-hexaen-13-yl}prop-2-enoate] | – | IC50 ([2]; pH 7.8, 22 °C): > 1 µM
CCN1c2ncc(CCc3ccc(N)cc3)cc2C(=O)N(C)c2cccnc21 [13-[2-(4-aminophenyl)ethyl]-2-ethyl-9-methyl-2,4,9,15-tetraazatricyclo[9.4.0.0^{3,8}]pentadeca-1(15),3(8),4,6,11,13-hexaen-10-one] | > 1 | –
